“Also recorded” adds a separate entry of the source.
What was measured:
[1] = Analysis of PEGylation reaction by DLS, ethanolamine challenge of the Co linkage; type: physicochemical
Description: While sonicating (Branson, model #2510), human transferrin (0.5 mL of a 1 mg/mL aqueous solution, Sigma-Aldrich, cat. #T0665-50MG, lot #SLBC […]) was added. The solution had no discernible color and was allowed to stand undisturbed for 15 min. Dynamic light scattering (DLS, Microtrac Nanotrac Ultra) was used to measure particle size where the volume average particle size was 13.6 nm (standard deviation=4.2 nm). Hydrogen peroxide (20 μL of a 30% solution, Mallinckrodt AR, cat. #5240, lot #5240Y23470) was added while sonicating and the solution was thoroughly mixed by pipetting. The solution became faintly yellow but with no turbity. The solution was allowed to stand undisturbed for 30 min. Analysis of PEGylation reaction by DLS. The average diameter of both human transferrin (6.8 nm, SD=1.8 nm) and H2N-PEG-COOH (4.8 nm, SD=1.2 nm) were measured by DLS (FIG. 5). […] Addition of ethanolamine (50 mM) at this point led to a decrease in particle size back to 6.4 nm (SD=2.0) thereby degrading the prodrug linkage due to facile exchange of the Co amino ligands.

[2] = test system: SNU-5 cells; assay: Nanoparticle uptake by image-based flow cytometry; type: cell-based; settings: for High uptake (red), percentage of cells / Low uptake (blue), percentage of cells / No uptake (green), percentage of cells: SNU-5, 8 h incubation, 100 μg/mL
Description: An Amnis FlowSight image-based flow cytometer equipped with a 488 nm (60 mW) and Side Scatter (7.85 mW) (EMD Millipore; Seattle, Wash.) was used to analyze cell samples. The FlowSight uses a CCD camera system to simultaneously collect both quantitative fluorescence and image data. For uptake studies, SNU-5 cells were incubated with Co-Alb-FITC NPs in the presence or absence of a commonly used inhibitor of macropinocytosis, 5-(N-ethyl-N-isopropyl)amiloride (EIPA), followed by fixation, and analysis via image-based flow cytometry.
SNU-5 cells were cultured at 37° C. and 5% CO2 in IMDM medium supplemented with 20% fetal bovine serum at cell densities between 1×10^5 and 1×10^6 cells/mL, and Jurkat cells were cultured at 37° C. and 5% CO2 in RPMI-1640 medium supplemented with 10% fetal bovine serum at cell densities between 1×10^5 and 1×10^6 cells/mL. For nanoparticle uptake experiments, cells were transferred to serum-starved IMDM or RPMI-1640 medium (0.1% FBS) and incubated at 37° C. and 5% CO2 for 10-16 h prior to dosing with nanoparticles. Cells (2 mL, 500,000 cells/mL) were incubated with the desired nanoparticle or control particle solution (100 μg/mL) with or without added EIPA for the times indicated. Cells were then washed twice with PBS, fixed for 12 min in 3.7% formaldehyde in PBS, washed twice with PBS, stained with NucBlue® Fixed Cell ReadyProbes® Reagent, and then washed twice more with PBS. Samples were either analyzed immediately or stored at 4° C. in the dark until analysis.

For transferrin-PEG conjugate, the “Particle size after addition of ethanolamine” value ([1]; ethanolamine 50 mM, not oxidized (Co(II))) was 6.4 nm and the “Average diameter after addition of ethanolamine” value ([1]; oxidized 30 min with H2O2 (Co(III)) before ethanolamine) was 18.3 nm.

In the case of `CCN(c1nc(N)c(C(=O)N=C(N)N)nc1Cl)C(C)C` [EIPA, 5-(N-ethyl-N-isopropyl)amiloride], the “Cell viability in the uptake experiment” value ([2]; SNU-5, 100 μM EIPA) is reported as “slight decrease in cell viability”, the “Effect on uptake of Co-Alb-FITC NPs” value ([2]; SNU-5, pre-incubation with inhibitor) is reported as “dramatic reduction in particle uptake; also recorded: reduce uptake in a dose-dependent manner” and the “Inhibitory effect on uptake over time” value ([2]; SNU-5, uptake of Co-Alb-FITC NPs) is reported as “remained relatively constant over 8 h, but became greatly diminished at 24 h”.

In the case of FITC-Alb only, the “High uptake (red), percentage of cells” value ([2]; EIPA 0 μM) is reported as 13.9%, the “Low uptake (blue), percentage of cells” value ([2]; EIPA 0 μM) is reported as 45.4% and the “No uptake (green), percentage of cells” value ([2]; EIPA 0 μM) is reported as 40.6%. For the same compound, the “High uptake (red), percentage of cells” value ([2]; EIPA 75 μM) was 16.9%, the “Low uptake (blue), percentage of cells” value ([2]; EIPA 75 μM) was 11.8% and the “No uptake (green), percentage of cells” value ([2]; EIPA 75 μM) was 71.3%. For the same compound, the “Uptake in the presence of EIPA” value ([2]; SNU-5, free protein 100 μg/mL, no NPs) was “reduction in uptake”.
